We go through 29 compounds from patent US12673944B2, “Compounds having inhibitory activity against glucosylceramide synthase or pharmaceutically acceptable salt thereof, processes for preparing the same, and pharmaceutical compositions comprising the same” (YUHAN CORPORATION, priority 2019, dated 2026).

Assay [1] concerns the target T1, glucosylceramide synthase (GCS) (Homo sapiens, UniProt Q16739).
T1 construct: The obtained supernatant was used; host or cells: A549 cells (lysate supernatant after sonication)
T1 sequence (Q16739 1-394): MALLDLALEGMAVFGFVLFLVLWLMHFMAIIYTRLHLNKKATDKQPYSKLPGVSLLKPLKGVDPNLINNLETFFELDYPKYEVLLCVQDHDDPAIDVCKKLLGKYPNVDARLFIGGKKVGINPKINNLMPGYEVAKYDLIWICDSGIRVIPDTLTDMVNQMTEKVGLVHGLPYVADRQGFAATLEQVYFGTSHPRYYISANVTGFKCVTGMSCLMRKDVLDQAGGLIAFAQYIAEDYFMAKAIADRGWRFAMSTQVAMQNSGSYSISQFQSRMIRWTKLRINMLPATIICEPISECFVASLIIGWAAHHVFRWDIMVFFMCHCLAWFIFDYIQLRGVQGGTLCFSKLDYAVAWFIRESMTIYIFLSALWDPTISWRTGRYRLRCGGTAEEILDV
The assay can be described thus: GCS enzyme inhibition assay (A549 cell lysate, NBD C6-ceramide, HPLC fluorescence). Conditions: inhibitory activity against GCS, 37° C., 90 minutes. It is filed as biochemical. A digest of the protocol:
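Percent GCS activity was derived from the GlcCer share of Cer plus GlcCer areas, scaled from ibiglustat (0%) to DMSO (100%). Enzyme came from sonicated A549 lysate in 50 mM HEPES pH 7.3; 90 min incubation at 37° C, chloroform/methanol stop and extraction.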

The test system of assay [2] is GM1 production in Jurkat cells. The assay can be described thus: cells. In kind it is cell-based. The conditions noted are these: Homo sapiens, Jurkat, 72 h.

In the case of `N#Cc1ccc(-c2ccc3c(c2)C(NC(=O)O[C@@H]2CN4CCC2CC4)CCO3)cc1` (stereo partly drawn) [Example 100, (S)-quinuclidin-3-yl (6-(4-cyanophenyl)chroman-4-yl)carbamate], the IC50 in assay [1] came to 7.1 nM; in assay [2], 289 nM.

With `CC1(C)COc2ccc(-c3cccc(F)c3)cc2C1NC(=O)O[C@@H]1CN2CCC1CC2` (stereo partly drawn) [Example 101, (S)-quinuclidin-3-yl (6-(3-fluorophenyl)-3,3-dimethylchroman-4-yl)carbamate], the IC50 in assay [1] was determined as 9.2 nM; in assay [2], 65.9 nM.

Regarding `CC1(C)COc2cc(-c3cccc(F)c3)ccc2C1NC(=O)O[C@@H]1CN2CCC1CC2` (stereo partly drawn) [Example 102, (S)-quinuclidin-3-yl (7-(3-fluorophenyl)-3,3-dimethylchroman-4-yl)carbamate], the IC50 in assay [1] amounted to 0.8 nM; in assay [2] it was 2.81 nM.

As for `CC1(C)COc2cc(-c3cccc(Cl)c3)ccc2C1NC(=O)O[C@@H]1CN2CCC1CC2` (stereo partly drawn) [Example 103, (S)-quinuclidin-3-yl (7-(3-chlorophenyl)-3,3-dimethylchroman-4-yl)carbamate], the 50% inhibitory concentration (IC50) in assay [1] was 1 nM; in assay [2], 1.43 nM.

In the case of `CC1(C)COc2cc(-c3cccc(C(F)(F)F)c3)ccc2C1NC(=O)O[C@@H]1CN2CCC1CC2` (stereo partly drawn) [Example 104, (S)-quinuclidin-3-yl (3,3-dimethyl-7-(3-(trifluoromethyl)phenyl)chroman-4-yl)carbamate], the values for the half-maximal inhibitory concentration (IC50) in assay [1] and in assay [2] were 1 nM and 1.02 nM, respectively.

Turning to `CC1(C)COc2cc(-c3cccc(OC(F)(F)F)c3)ccc2C1NC(=O)O[C@@H]1CN2CCC1CC2` (stereo partly drawn) [Example 105, (S)-quinuclidin-3-yl (3,3-dimethyl-7-(3-(trifluoromethoxy)phenyl)chroman-4-yl)carbamate], the IC50 in assay [1] came to 1.11 nM; in assay [2] it was 1.41 nM.

Turning to `COCOc1ccccc1-c1ccc2c(c1)OCC(C)(C)C2NC(=O)O[C@@H]1CN2CCC1CC2` (stereo partly drawn) [Example 106, (S)-quinuclidin-3-yl (7-(2-(methoxymethoxy)phenyl)-3,3-dimethylchroman-4-yl)carbamate], the half-maximal inhibitory concentration (IC50) in assay [1] stood at 1.17 nM; in assay [2], 0.22 nM.

In the case of `COCOc1cccc(-c2ccc3c(c2)OCC(C)(C)C3NC(=O)O[C@@H]2CN3CCC2CC3)c1` (stereo partly drawn) [Example 107, (S)-quinuclidin-3-yl (7-(3-(methoxymethoxy)phenyl)-3,3-dimethylchroman-4-yl)carbamate], the 50% inhibitory concentration (IC50) in assay [1] stood at 1.17 nM; in assay [2], 0.1 nM.

In the case of `COCOc1ccc(-c2ccc3c(c2)OCC(C)(C)C3NC(=O)O[C@@H]2CN3CCC2CC3)cc1` (stereo partly drawn) [Example 108, (S)-quinuclidin-3-yl (7-(4-(methoxymethoxy)phenyl)-3,3-dimethylchroman-4-yl)carbamate], the IC50 in assay [1] stood at 0.69 nM; in assay [2], 0.46 nM.

As for `COCCOc1ccccc1-c1ccc2c(c1)OCC(C)(C)C2NC(=O)O[C@@H]1CN2CCC1CC2` (stereo partly drawn) [Example 109, (S)-quinuclidin-3-yl (7-(2-(2-methoxyethoxy)phenyl)-3,3-dimethylchroman-4-yl)carbamate], the IC50 in assay [1] was found to be 2.14 nM; in assay [2], 2 nM.

With `COCCOc1cccc(-c2ccc3c(c2)OCC(C)(C)C3NC(=O)O[C@@H]2CN3CCC2CC3)c1` (stereo partly drawn) [Example 110, (S)-quinuclidin-3-yl (7-(3-(2-methoxyethoxy)phenyl)-3,3-dimethylchroman-4-yl)carbamate], the half-inhibitory concentration (IC50) in assay [1] was determined as 1.3 nM; in assay [2], 0.12 nM.

Take `COCCOc1ccc(-c2ccc3c(c2)OCC(C)(C)C3NC(=O)O[C@@H]2CN3CCC2CC3)cc1` (stereo partly drawn) [Example 111, (S)-quinuclidin-3-yl (7-(4-(2-methoxyethoxy)phenyl)-3,3-dimethylchroman-4-yl)carbamate]: the values for the IC50 in assay [1] and in assay [2] were 1.93 nM and 1.27 nM, respectively.

For `CC1(C)COc2cc(-c3cccc(C(F)F)c3)ccc2C1NC(=O)O[C@@H]1CN2CCC1CC2` (stereo partly drawn) [Example 112, (S)-quinuclidin-3-yl (7-(3-(difluoromethyl)phenyl)-3,3-dimethylchroman-4-yl)carbamate], the half-maximal inhibitory concentration (IC50) in assay [1] is 0.53 nM; in assay [2], 0.55 nM.

In the case of `Cc1ccc(-c2ccc3c(c2)OCC(C)(C)C3NC(=O)O[C@@H]2CN3CCC2CC3)c2cccnc12` (stereo partly drawn) [Example 113, (S)-quinuclidin-3-yl (3,3-dimethyl-7-(8-methylquinolin-5-yl)chroman-4-yl)carbamate], the IC50 in assay [1] was 2.92 nM; in assay [2] it was 13 nM.

With `COc1cc(OC)cc(-c2ccc3c(c2)OCC(C)(C)C3NC(=O)O[C@@H]2CN3CCC2CC3)c1` (stereo partly drawn) [Example 114, (S)-quinuclidin-3-yl (7-(3,5-dimethoxyphenyl)-3,3-dimethylchroman-4-yl)carbamate], the IC50 is 0.75 nM in assay [1] and 2.81 nM in assay [2].

Consider `COc1ccc(-c2ccc3c(c2)OCC(C)(C)C3NC(=O)O[C@@H]2CN3CCC2CC3)cc1C` (stereo partly drawn) [Example 115, (S)-quinuclidin-3-yl (7-(4-methoxy-3-methylphenyl)-3,3-dimethylchroman-4-yl)carbamate], for which the 50% inhibitory concentration (IC50) in assay [1] is 1.88 nM; in assay [2], 3.72 nM.

For `COc1ccc(-c2ccc3c(c2)OCC(C)(C)C3NC(=O)O[C@@H]2CN3CCC2CC3)c(C)c1` (stereo partly drawn) [Example 116, (S)-quinuclidin-3-yl (7-(4-methoxy-2-methylphenyl)-3,3-dimethylchroman-4-yl)carbamate], the half-inhibitory concentration (IC50) was determined as 1.39 nM in assay [1] and 1.16 nM in assay [2].

For the compound `COc1ccc(-c2ccc3c(c2)OCC(C)(C)C3NC(=O)O[C@@H]2CN3CCC2CC3)cc1Cl` (stereo partly drawn) [Example 117, (S)-quinuclidin-3-yl (7-(3-chloro-4-methoxyphenyl)-3,3-dimethylchroman-4-yl)carbamate], the figures for the 50% inhibitory concentration (IC50) in assay [1] and in assay [2] were 1.66 nM and 4.43 nM, respectively.

For the compound `COc1ccc(-c2ccc3c(c2)OCC(C)(C)C3NC(=O)O[C@@H]2CN3CCC2CC3)cc1F` (stereo partly drawn) [Example 118, (S)-quinuclidin-3-yl (7-(3-fluoro-4-methoxyphenyl)-3,3-dimethylchroman-4-yl)carbamate], the IC50 in assay [1] is 1.63 nM; in assay [2], 3.63 nM.

As for `COc1ccc(-c2ccc3c(c2)OCC(C)(C)C3NC(=O)O[C@@H]2CN3CCC2CC3)c(Cl)c1` (stereo partly drawn) [Example 119, (S)-quinuclidin-3-yl (7-(2-chloro-4-methoxyphenyl)-3,3-dimethylchroman-4-yl)carbamate], the half-inhibitory concentration (IC50) in assay [1] stood at 0.65 nM; in assay [2], 1.25 nM.

`COc1cc(F)ccc1-c1ccc2c(c1)OCC(C)(C)C2NC(=O)O[C@@H]1CN2CCC1CC2` (stereo partly drawn) [Example 120, (S)-quinuclidin-3-yl (7-(4-fluoro-2-methoxyphenyl)-3,3-dimethylchroman-4-yl)carbamate]: the concentration for half-maximal inhibition (IC50) came to 0.71 nM in assay [1] and 6.41 nM in assay [2].

For `COc1cccc(Cl)c1-c1ccc2c(c1)OCC(C)(C)C2NC(=O)O[C@@H]1CN2CCC1CC2` (stereo partly drawn) [Example 121, (S)-quinuclidin-3-yl (7-(2-chloro-6-methoxyphenyl)-3,3-dimethylchroman-4-yl)carbamate], the IC50 worked out at 2.67 nM in assay [1] and 15.9 nM in assay [2].

With `COc1cccc(F)c1-c1ccc2c(c1)OCC(C)(C)C2NC(=O)O[C@@H]1CN2CCC1CC2` (stereo partly drawn) [Example 122, (S)-quinuclidin-3-yl (7-(2-fluoro-6-methoxyphenyl)-3,3-dimethylchroman-4-yl)carbamate], the values for the IC50 in assay [1] and in assay [2] were 0.96 nM and 3.75 nM, respectively.

Take `COc1cc(F)c(-c2ccc3c(c2)OCC(C)(C)C3NC(=O)O[C@@H]2CN3CCC2CC3)cc1F` (stereo partly drawn) [Example 123, (S)-quinuclidin-3-yl (7-(2,5-difluoro-4-methoxyphenyl)-3,3-dimethylchroman-4-yl)carbamate]: the figures for the IC50 in assay [1] and in assay [2] were 0.79 nM and 4.24 nM, respectively.

Turning to `CCOc1ccc(-c2ccc3c(c2)OCC(C)(C)C3NC(=O)O[C@@H]2CN3CCC2CC3)cc1F` (stereo partly drawn) [Example 124, (S)-quinuclidin-3-yl (7-(4-ethoxy-3-fluorophenyl)-3,3-dimethylchroman-4-yl)carbamate], the 50% inhibitory concentration (IC50) in assay [1] came to 0.75 nM; in assay [2], 4.47 nM.

Consider `COc1ccc(-c2ccc3c(c2)OCC(C)(C)C3NC(=O)O[C@@H]2CN3CCC2CC3)c(OC)c1` (stereo partly drawn) [Example 125, (S)-quinuclidin-3-yl (7-(2,4-dimethoxyphenyl)-3,3-dimethylchroman-4-yl)carbamate], for which the IC50 in assay [1] was 0.86 nM; in assay [2] it was 3.85 nM.

As to `COc1ccc(OC)c(-c2ccc3c(c2)OCC(C)(C)C3NC(=O)O[C@@H]2CN3CCC2CC3)c1` (stereo partly drawn) [Example 126, (S)-quinuclidin-3-yl (7-(2,5-dimethoxyphenyl)-3,3-dimethylchroman-4-yl)carbamate], the half-inhibitory concentration (IC50) in assay [1] was 0.58 nM; in assay [2] it was 0.85 nM.

As for `COc1cccc(-c2ccc3c(c2)OCC(C)(C)C3NC(=O)O[C@@H]2CN3CCC2CC3)c1OC` (stereo partly drawn) [Example 127, (S)-quinuclidin-3-yl (7-(2,3-dimethoxyphenyl)-3,3-dimethylchroman-4-yl)carbamate], the IC50 in assay [1] amounted to 2.11 nM; in assay [2], 14.2 nM.

For `COc1ccc(-c2ccc3c(c2)OCC(C)(C)C3NC(=O)O[C@@H]2CN3CCC2CC3)cc1OC` (stereo partly drawn) [Example 128, (S)-quinuclidin-3-yl (7-(3,4-dimethoxyphenyl)-3,3-dimethylchroman-4-yl)carbamate], the figures for the IC50 in assay [1] and in assay [2] were 2.84 nM and 23.2 nM, respectively.

A word on the IC50: it is the concentration that gives 50% inhibition. Low readings indicate greater potency, high ones weaker potency.
